# Results taken from PMC3673938, “Two Distinct Calmodulin Binding Sites in the Third Intracellular Loop and Carboxyl Tail of Angiotensin II (AT1A) Receptor” (PLoS ONE, 2013).
# Where no end group is shown, it is not given here.
# How the values were obtained:
# [1] = system: purified bovine brain CaM; test: GST-fusion protein pull-down with purified bovine brain CaM; assay type: binding; settings: for relative binding efficiency for CaM versus wild type (in words): GST pull-down with fixed concentrations, data not shown; for interaction with purified CaM (pull-down, in words) / relative binding efficiency for CaM: 50 pmol GST-fusion protein; for interaction with purified CaM (pull-down, in words): 50 pmol purified bovine CaM, 100 mM Tris-HCl pH 7.5, Ca2+ dependent (0.1 mM CaCl2 vs 1 mM EGTA), repeated five times; for relative binding efficiency for CaM: purified bovine brain CaM, 100 mM Tris-HCl pH 7.5, 0.1 mM CaCl2, immunoblot density ratio, 5 independent experiments
# Experimental: (§1) GST-fusion proteins were expressed in E. coli BL21 strain cells, and purified by affinity chromatography using immobilized glutathione sepharose 4B beads. Proteins were eluted by reduced glutathione in 50 mM Tris-HCl buffer (pH 8.0), and then concentrated with Centricon filters with 3 kDa MW cut-off. The eluted proteins were either used immediately or stored at −80°C for future use. For GST-fusion protein pull-down assays, fusion proteins were incubated with either cell lysates or purified protein(s) at 4°C for 3 hours, following which glutathione-sepharose 4B beads were added and incubation continued at 4°C for 1 hour. The beads were then recovered by brief centrifugation, followed by 4 washes with the corresponding incubation buffer. The fusion proteins and the proteins to which they were bound were then separated by SDS-PAGE, and identified by staining with Coomassie blue or by immunoblot.
# Figure 1 Interactions of the i3 loop and carboxyl tail of the AT1A receptor with CaM. A, Construction of GST-fusion proteins. Upper panel illustrates a schematic structure of the AT1A receptor and constructs of GST-fusion proteins of the i3 loop and carboxyl tail of the receptor. The numbers represent positions of amino acids in the receptor. The GST-fusion proteins were constructed, expressed in E. coli, purified by using gluthathione-sepharose 4B beads, separated by SDS-PAGE, and stained by Coomassie blue (lower panel). B. Interactions of the i3 loop or carboxyl tail of AT1A receptor with CaM in rat brain lysates (upper panel) and with purified bovine brain CaM (lower panel). 50 pmol of GST-fusion proteins were incubated with 500 µg of rat brain lysates in 250 µl of buffer containing 20 mM Tris-HCl, 70 mM NaCl, pH 7.5 with 1 mM EGTA or 0.1 mM CaCl2. Interacting protein complexes were pulled down by gluthathione-sepharose 4B beads, and visualized by immunoblot with a specific anti-CaM antibody. The same methods were applied to interactions with pure bovine CaM (50 pmol), except that the buffer contained 100 mM Tris-HCl (pH 7.5). These experiments were repeated five times with similar results.
# Figure 3 CaM binding sites in the i3 loop and carboxyl tail of the AT1A receptor. A, Schematic representation of constructs of GST-fusion proteins. Four GST-fusion proteins containing truncated peptides in the i3 loop and carboxyl tail of the receptor were constructed, including GST-N-terminus of the i3 loop (GST-ATi3N), GST-C-terminus of the i3 loop (GST-ATi3C), GST-N-terminus of carboxyl tail (GST-ATctN) and GST-C-terminus of carboxyl tail (GST-ATctC). The numbers under the first or the last residues represent amino acid positions in the receptor. B, Interaction of GST-fusion proteins with CaM. The GST-fusion proteins (50 pmol) were incubated with purified bovine CaM (50 pmol) in 250 µl of buffer containing 100 mM Tris-HCl (pH 7.5) with 0.1 mM CaCl2. Proteins were pulled down by gluthathione-sepharose 4B beads, following which immunoblots were probed with a specific anti-CaM antibody. These experiments were repeated five times with similar results.
# Figure 5 Effect of point mutations in ATi3N or ATctN on their interactions with CaM. A. Modeled structures of CaM-ATi3(214–231) and CaM-ATct(302–317). The complexes of CaM and CaM binding motif in the i3 loop ATi3(214–231) or the carboxyl terminal tail ATct(302–317) of the receptor were modeled as described in Experimental Procedures. The target peptides are colored in red. […] Calcium atoms are shown as orange spheres. The N- and C- termini of CaM are also labeled. Helices and sheets in CaM are colored in green and yellow, respectively. B. Effect of point mutations at ATi3N or ATctN on their interaction with CaM. […]
# CaM in rat brain lysates = test: GST-fusion protein pull-down from rat brain lysates; assay type: binding; settings: 50 pmol GST-fusion protein, 500 µg rat brain lysates, 20 mM Tris-HCl, 70 mM NaCl, pH 7.5; Ca2+ dependent; repeated five times
# Experimental: as §1
# Figure 1 Interactions of the i3 loop and carboxyl tail of the AT1A receptor with CaM. A, Construction of GST-fusion proteins. Upper panel illustrates a schematic structure of the AT1A receptor and constructs of GST-fusion proteins of the i3 loop and carboxyl tail of the receptor. The numbers represent positions of amino acids in the receptor. […]
# G protein βγ subunits = test: GST-fusion protein pull-down of G protein βγ subunits, with or without CaM; assay type: binding, bovine; settings: 2 pmol GST-fusion protein, 2 pmol Gβγ, CaM pre-incubated 30 minutes, 20 mM Tris-HCl, 70 mM NaCl, 0.1 mM CaCl2, pH 7.5; 4 or 5 experiments
# Experimental: as §1
# Figure 7 Effect of CaM on G protein βγ subunit interaction with wild ATi3 or ATct. A. Interaction of G protein βγ subunits and ATi3 or ATct. 50 pmol of GST-ATi3(213–242) or GST-ATct(297–359) were incubated with different amounts of G protein Gβγ subunits in a buffer containing 20 mM Tris-HCl and 70 mM NaCl (pH 7.5). Interactions were assessed by GST-fusion protein pull-down assay, and blots were probed with a specific antibody against Gβ subunits (upper panel). 1 pmol of Gβγ subunit was interacted with different amounts of GST-ATi3(213–242) and GST-ATct(297–359). Interaction was assessed by immunoblot against Gβ subunits (lower panel). B. CaM inhibits the interaction between G protein Gβγ subunits and ATi3 or ATct. 2 pmol of GST-ATi3(213–242) or GST-ATct(297–359) were incubated with different concentrations of pure bovine brain CaM for 30 minutes in a buffer (20 mM Tris-HCl and 70 mM NaCl with 0.1 mM CaCl2, pH 7.5) following which 2 pmol of Gβγ subunits were added and incubated for 1 hour. GST-fusion proteins and their interacting proteins were pulled down by gluthathione-sepharose 4B beads, and subjected to immunoblot. Blots were probed with a specific antibody against Gβ subunits. The summary graph represents means ± S.E. from four independent experiments. C. Effects of CaM on the interactions between G protein βγ subunits and mutated ATi3 and ATct. The method is same as the described in the Figure 7B, except that we used mutated GST-fusion proteins, GST-ATi3(213–242)W219A, ATct(297–359)F309A, and ATct(297–359)F313A. The summary graph represents mean ± S.E. from 4 or 5 independent experiments.
# [2] = system: AT1A receptor-CaM interaction; test: BRET between AT1A receptor-eYFP and RLuc-CaM / CaM-RLuc in HEK293 cells; assay type: cell-based, Human Embryonic Kidney 293 (HEK293) cells; settings: 100 nM Ang II at 2, 4 and 6 minutes, compared with no Ang II
# Experimental: We first stably transfected HEK293 cells with the AT1A receptor-eYFP vector by using lipofectamine 2000 solution according to the vendor’s (Invitrogen) instructions. […] The co-transfectants were detached with PBS buffer containing 1 mM EDTA, and distributed into 96 well plates at 10^5 cells/well (OptiPlate 96, Greiner Bio-One. Longwood, FL). Fluorescence measurements were acquired using a Victor2 multilabel plate reader (Perkin Elmer Life Sciences, Shelton, CT). […] The emission of light from YFP was measured both before and after stimulation with 100 nM of Ang II.
# 48 hours later, the cotransfectants were washed with saline pre-warmed at 37°C and calibrated in saline in a 37°C incubator for 30 minutes. […] Control co-transfectants were treated with equal amounts of saline (vehicle).
# [3] = target: T1, CaM purified from bovine brain (dansyl-CaM) (Bos taurus, UniProt P62157); test: Dansyl-CaM fluorescence emission spectrum shift; assay type: binding; settings: dansyl-CaM 106 nM, 500 nM peptide + 0.1 mM calcium, 1 hour room temperature; shifted from 521 nm (EGTA); three experiments
# T1 construct: CaM and G protein βγ subunits purified from bovine brain; purchased Calbiochem (La Jolla, CA); host or cells: bovine brain (tissue-purified)
# Experimental: Dansyl-CaM was synthesized according to a standard method, [46], [47], [48]. 500 µl of CaM purified from bovine brain (2 mg/ml in a buffer containing 20 mM NH4HCO3, pH 7.4 and 1 mM CaCl2) was mixed with 1 µl of dansyl chloride (100 mg/ml in acetone) at 4°C C for 1 hour with agitation. The mixture was then applied to a Centricon 4 concentrator with 10 kDa MW cut-off to remove the unincorporated dye. Efficiencies of dansylation (0.18–0.34 mol of dansyl moiety per mol of CaM) were calculated by measurement of absorption at 320 nm using a molar extinction coefficient of 3400 M-1cm-1. For conformational studies of dansyl-CaM, fluorescence was monitored at room temperature with a SLMAminco model 8000 series 2 spectrometer (Spectronic Instruments, Rochester, NY) at an excitation wavelength of 340 nm, and emission wavelengths from 425 to 600 nm.
# Figure 4 CaM binding motifs in the i3 loop and carboxyl terminal tail of the AT1A receptor. A, Alignment of CaM binding motifs. […] Fluorescence emission spectra of dansyl-CaM (106 nM) at an emission wavelength of 425–600 nm were measured in the presence of 10 mM EGTA, 0.1 mM calcium, 500 nM ATi3 (214–231) +0.1 mM calcium, and 500 nM ATct (302–317) +0.1 mM calcium. […] Spectra were corrected for background buffer fluorescence. […]
substance,measurement,setting,value
GST-ATi3N(213–234)Y215A: Y215A mutant of GST-ATi3N(213–234) ({GST}-TSATLIWKALKKAYEIQKNKPR),relative binding efficiency for CaM versus wild type (in words),[1],did not have reduced binding efficiencies
"ATi3C (235–242): GST-C-terminus of the i3 loop, amino acids 235–242, peptide NDDIFRIT","interaction with purified CaM (pull-down, in words)",[1],no interactions with CaM
"GSTATi3(213–242): GST fused to the i3 loop of AT1A receptor, GST-TSYTLIWKALKKAYEIQKNKPRNDDIFRII ({GST}-TSYTLIWKALKKAYEIQKNKPRNDDIFRII)","interaction with purified CaM (pull-down, in words)",[1],associated
same,"association with CaM from rat brain lysates (pull-down, in words)",CaM in rat brain lysates,associated
same,Gβγ binding to GST-fusion protein in the presence of 2 pmol of CaM,G protein βγ subunits,77%
same,Gβγ binding to GST-fusion protein in the presence of 10 pmol of CaM,G protein βγ subunits,60%
"Angiotensin II (DRVYIHPF; Angiotensin-2; UniProt P01019 25-32, looked up) [Ang II, AT1A receptor agonist]",effect on magnitude of the BRET ratio of the co-transfectants,[2],did not alter
"ATctC (325–359): GST-C-terminus of carboxyl tail, GST-KSHSSLSTKMSTLSYRPSDNMSSSAKKPASCFEVE ({GST}-KSHSSLSTKMSTLSYRPSDNMSSSAKKPASCFEVE)","interaction with purified CaM (pull-down, in words)",[1],no interactions with CaM
GST-ATi3N(213–234)L217A: L217A mutant of GST-ATi3N(213–234) ({GST}-TSYTAIWKALKKAYEIQKNKPR),relative binding efficiency for CaM versus wild type (in words),[1],did not have reduced binding efficiencies
GST-ATctN(297–324)F309A: F309A mutant of GST-ATctN(297–324) ({GST}-LNPLFYGFLGKKAKKYFLQLLKYIPPKA),relative binding efficiency for CaM,[1],29 % of wild type
GSTATi3N(213–234)W219A: W219A mutant of GST-ATi3N(213–234) ({GST}-TSYTLIAKALKKAYEIQKNKPR),relative binding efficiency for CaM,[1],32 % of wild type
"ATi3N (213–234): GST-N-terminus of the i3 loop, GST-TSYTLIWKALKKAYEIQKNKPR ({GST}-TSYTLIWKALKKAYEIQKNKPR)","interaction with purified CaM (pull-down, in words)",[1],interact with purified CaM
GST-ATctN(297–324)Y312A: Y312A mutant of GST-ATctN(297–324) ({GST}-LNPLFYGFLGKKFKKAFLQLLKYIPPKA),relative binding efficiency for CaM versus wild type (in words),[1],did not have reduced binding efficiencies
"ATctN (297–324): GST-N-terminus of carboxyl tail, GST-LNPLFYGFLGKKFKKYFLQLLKYIPPKA ({GST}-LNPLFYGFLGKKFKKYFLQLLKYIPPKA)","interaction with purified CaM (pull-down, in words)",[1],interact with purified CaM
GST-ATctN(297–324)F313A: F313A mutant of GST-ATctN(297–324) ({GST}-LNPLFYGFLGKKFKKYALQLLKYIPPKA),relative binding efficiency for CaM,[1],22 % of wild type
SYTLIWKALKKAYEIQKN [ATi3(214–231)],λmax of dansyl-CaM fluorescence emission spectrum in presence of peptide,[3],486 nm
GST-ATi3(W219A): W219A mutant of GST-ATi3(213–242) ({GST}-TSYTLIAKALKKAYEIQKNKPRNDDIFRII),Gβγ binding to GST-fusion protein in the presence of 2 pmol of CaM,G protein βγ subunits,95%
same,Gβγ binding to GST-fusion protein in the presence of 10 pmol of CaM,G protein βγ subunits,94%
